The test has as its target T1, voltage-gated sodium channel Nav1.7 (Homo sapiens, UniProt Q15858).
T1 construct: host or cells: HEK293
The test can be described thus: Nav1.7 inhibition, membrane potential fluorescence dye assay with veratridine stimulation in Human Nav1.7-HEK293 cells. Type of test: cell-based. Conditions: 30 μM veratridine as stimulant.

T1 sequence (Q15858 whole entry): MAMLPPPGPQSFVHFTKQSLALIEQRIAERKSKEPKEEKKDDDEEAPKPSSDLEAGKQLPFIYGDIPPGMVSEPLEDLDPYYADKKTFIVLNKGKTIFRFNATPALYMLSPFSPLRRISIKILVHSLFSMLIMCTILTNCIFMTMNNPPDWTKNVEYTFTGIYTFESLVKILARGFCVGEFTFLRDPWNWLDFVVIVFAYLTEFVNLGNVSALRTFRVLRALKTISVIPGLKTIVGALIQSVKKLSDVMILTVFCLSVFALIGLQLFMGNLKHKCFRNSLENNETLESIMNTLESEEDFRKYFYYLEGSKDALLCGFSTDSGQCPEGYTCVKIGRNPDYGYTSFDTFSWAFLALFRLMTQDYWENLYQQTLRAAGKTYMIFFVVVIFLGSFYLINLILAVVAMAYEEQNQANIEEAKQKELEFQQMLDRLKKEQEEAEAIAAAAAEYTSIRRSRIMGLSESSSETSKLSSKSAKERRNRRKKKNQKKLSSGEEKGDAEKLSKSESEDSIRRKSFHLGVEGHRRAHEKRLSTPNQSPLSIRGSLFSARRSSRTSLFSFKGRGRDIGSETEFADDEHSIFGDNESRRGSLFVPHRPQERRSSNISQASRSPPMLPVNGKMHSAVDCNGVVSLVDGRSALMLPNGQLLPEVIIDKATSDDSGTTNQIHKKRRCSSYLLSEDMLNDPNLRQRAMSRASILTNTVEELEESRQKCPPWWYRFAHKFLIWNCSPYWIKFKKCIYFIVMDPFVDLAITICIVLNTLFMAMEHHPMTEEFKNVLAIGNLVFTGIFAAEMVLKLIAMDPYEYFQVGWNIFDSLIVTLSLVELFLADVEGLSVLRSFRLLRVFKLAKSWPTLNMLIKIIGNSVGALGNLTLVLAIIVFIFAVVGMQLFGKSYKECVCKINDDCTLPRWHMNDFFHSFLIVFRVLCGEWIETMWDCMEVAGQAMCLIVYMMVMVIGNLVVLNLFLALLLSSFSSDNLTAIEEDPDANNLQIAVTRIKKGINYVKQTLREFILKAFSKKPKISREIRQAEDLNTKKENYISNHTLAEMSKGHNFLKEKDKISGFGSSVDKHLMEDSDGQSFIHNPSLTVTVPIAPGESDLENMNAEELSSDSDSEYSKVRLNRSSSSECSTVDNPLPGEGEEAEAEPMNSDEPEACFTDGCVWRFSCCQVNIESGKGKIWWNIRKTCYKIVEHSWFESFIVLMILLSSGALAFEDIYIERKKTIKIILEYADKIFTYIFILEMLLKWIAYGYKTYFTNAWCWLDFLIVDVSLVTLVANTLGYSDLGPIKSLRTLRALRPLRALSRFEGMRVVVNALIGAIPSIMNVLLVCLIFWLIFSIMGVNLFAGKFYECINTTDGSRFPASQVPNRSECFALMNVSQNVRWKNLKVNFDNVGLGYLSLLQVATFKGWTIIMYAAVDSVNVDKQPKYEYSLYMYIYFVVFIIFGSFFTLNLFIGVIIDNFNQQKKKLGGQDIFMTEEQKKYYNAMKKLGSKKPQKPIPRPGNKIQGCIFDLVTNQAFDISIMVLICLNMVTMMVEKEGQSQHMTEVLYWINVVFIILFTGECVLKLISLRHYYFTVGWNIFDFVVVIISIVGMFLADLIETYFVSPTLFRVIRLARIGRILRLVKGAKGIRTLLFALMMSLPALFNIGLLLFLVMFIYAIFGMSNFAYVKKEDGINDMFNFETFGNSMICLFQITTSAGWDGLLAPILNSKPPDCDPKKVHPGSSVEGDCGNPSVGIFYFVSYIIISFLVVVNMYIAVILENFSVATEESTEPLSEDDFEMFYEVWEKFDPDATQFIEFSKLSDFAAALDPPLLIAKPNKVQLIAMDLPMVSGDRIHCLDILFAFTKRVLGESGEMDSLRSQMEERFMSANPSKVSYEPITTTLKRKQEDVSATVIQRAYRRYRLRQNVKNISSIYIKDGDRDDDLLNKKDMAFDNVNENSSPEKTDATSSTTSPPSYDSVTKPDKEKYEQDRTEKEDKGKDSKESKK
Description: Human Nav1.7-HEK293 cells are HEK293 (human embryonic kidney 293) cells stabilized by transforming the human Nav1.7 gene. One day before experiment, the Human Nav1.7-HEK293 cells were dispensed onto a 96-well plate with 8×10^4 cells/well and cultured in a 5% CO2 incubator at 37° C. for 24 hours. DMEM/F12 containing 10% fetal bovine serum (FBS) was used as a culture medium and geneticin (Gibco®, Thermo Fisher Scientific) was added to stabilize the cells.
24 hours later, after washing the 96-well plate once with a 20 mM HEPES Hanks' balanced salt solution (HBSS) buffer (hereinafter, referred to as a reaction buffer, Invitrogen®, Thermo Fisher Scientific), a membrane potential fluorescence dye (FLIPR®, Molecular Devices) was added to the human Nav1.7-HEK293 cells. […] After reaction for 10 minutes, the change in membrane potential depending on treatment with 30 μM veratridine as a stimulant was measured for each well for 55 seconds using a fluorescence plate reader (FlexStation3, Molecular Device, USA).
The inhibition rate was calculated in the same manner also for lidocaine (Sigma) which is used as a local anesthetic and itch-relieving agent.

On to `CCN(CC)CC(=O)Nc1c(C)cccc1C` [Lidocaine, lidocaine], for which the IC50 turned out to be 28.7 µM.

The values are drawn from US11583512B2, “Composition for relieving itch or irritation of skin, comprising thymol trimethoxycinnamate” (Amorepacific Corporation, priority 2020, dated 2023).
